Data published in the supplement of paper PMC10307832.

Tests used:
Test in all cases: relative viability (nuclei count vs DMSO), 5 days (fraction); higher = more cells survive
KN-93 + Luminespib = compound: CN(C/C=C/C1=CC=C(C=C1)Cl)CC2=CC=CC=C2N(CCO)S(=O)(=O)C3=CC=C(C=C3)OC [KN-93] + CCNC(=O)c1noc(-c2cc(C(C)C)c(O)cc2O)c1-c1ccc(CN2CCOCC2)cc1 [Luminespib] (partner 0.01 µM)
Summary of the method: (§1)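 Lung cancer cell lines were pin-tool dosed in 1536-well plates on the day after seeding, with either a lone drug or a fixed anchor-drug dose plus five library-drug doses (not always all listed) in √10 steps. Nuclei were counted on 4× images after 5 days. Relative viability is the ratio of treated-well to vehicle-well nuclei counts, with each value a median of duplicate plates.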

KN-93 + Trametinib = compound: CN(C/C=C/C1=CC=C(C=C1)Cl)CC2=CC=CC=C2N(CCO)S(=O)(=O)C3=CC=C(C=C3)OC [KN-93] + CC(=O)Nc1cccc(-n2c(=O)n(C3CC3)c(=O)c3c(Nc4ccc(I)cc4F)n(C)c(=O)c(C)c32)c1 [Trametinib] (partner 0.02 µM)
Summary of the method: as §1

KN-93 + AZD7762 = compound: CN(C/C=C/C1=CC=C(C=C1)Cl)CC2=CC=CC=C2N(CCO)S(=O)(=O)C3=CC=C(C=C3)OC [KN-93] + NC(=O)Nc1cc(-c2cccc(F)c2)sc1C(=O)N[C@H]1CCCNC1 [AZD7762] (partner 0.2 µM)
Summary of the method: as §1

KN-93 + OSI-027 = compound: CN(C/C=C/C1=CC=C(C=C1)Cl)CC2=CC=CC=C2N(CCO)S(=O)(=O)C3=CC=C(C=C3)OC [KN-93] + COc1cccc2cc(-c3nc([C@H]4CC[C@H](C(=O)O)CC4)n4ncnc(N)c34)[nH]c12 [OSI-027] (partner 0.5 µM)
Summary of the method: as §1

KN-93 + Vorinostat = compound: CN(C/C=C/C1=CC=C(C=C1)Cl)CC2=CC=CC=C2N(CCO)S(=O)(=O)C3=CC=C(C=C3)OC [KN-93] + O=C(CCCCCCC(=O)Nc1ccccc1)NO [Vorinostat] (partner 1 µM)
Summary of the method: as §1

Row | Cell Line | relative viability (KN-93 + Luminespib; first compound 0.08 µM) | relative viability (KN-93 + Luminespib; first compound 0.253 µM) | relative viability (KN-93 + Luminespib; first compound 2.53 µM) | relative viability (KN-93 + Luminespib; first compound 8 µM) | relative viability (KN-93 + Trametinib; first compound 0.08 µM) | relative viability (KN-93 + Trametinib; first compound 0.253 µM) | relative viability (KN-93 + Trametinib; first compound 2.53 µM) | relative viability (KN-93 + Trametinib; first compound 8 µM) | relative viability (KN-93 + AZD7762; first compound 0.08 µM) | relative viability (KN-93 + AZD7762; first compound 0.253 µM) | relative viability (KN-93 + AZD7762; first compound 2.53 µM) | relative viability (KN-93 + AZD7762; first compound 8 µM) | relative viability (KN-93 + OSI-027; first compound 0.08 µM) | relative viability (KN-93 + OSI-027; first compound 0.253 µM) | relative viability (KN-93 + OSI-027; first compound 2.53 µM) | relative viability (KN-93 + OSI-027; first compound 8 µM) | relative viability (KN-93 + Vorinostat; first compound 0.08 µM) | relative viability (KN-93 + Vorinostat; first compound 0.253 µM) | relative viability (KN-93 + Vorinostat; first compound 2.53 µM) | relative viability (KN-93 + Vorinostat; first compound 8 µM)
1 | NCI-H647 | 0.168 | 0.145 | 0.13 | 0.109 | 0.353 | 0.499 | 0.468 | 0.466 | 0.398 | 0.557 | 0.447 | 0.381 | 0.695 | 0.643 | 0.856 | 0.533 | 0.532 | 0.853 | 0.601 | 0.323
2 | NCI-H650 | 0.697 | 0.76 | 0.855 | 0.579 | 0.933 | 1.08 | 0.998 | 0.794 | 0.984 | 0.996 | 1.23 | 0.978 | 0.502 | 0.536 | 0.576 | 0.443 | 0.495 | 0.422 | 0.544 | 0.346
3 | NCI-H727 | 0.367 | 0.326 | 0.351 | 0.376 | 0.32 | – | 0.384 | 0.409 | 0.643 | – | 0.627 | 0.471 | 0.644 | 0.512 | 0.486 | 0.337 | 1.05 | – | 1.3 | 1.01
4 | NCI-H838 | 0.306 | 0.268 | 0.197 | 0.223 | 0.563 | 0.482 | 0.522 | 0.509 | 0.842 | 0.884 | 0.992 | 0.831 | 0.443 | 0.328 | 0.445 | 0.41 | 0.738 | 0.62 | 0.663 | 0.592
5 | NCI-H1355 | 0.616 | 0.636 | 0.574 | 0.552 | 0.436 | 0.324 | 0.375 | 0.343 | 0.822 | 0.694 | 0.826 | 0.703 | 0.405 | 0.295 | 0.41 | 0.246 | 0.685 | 0.516 | 0.739 | 0.578
6 | NCI-H1395 | 0.631 | 0.619 | 0.664 | 0.604 | 1.03 | 1.19 | 1.07 | 0.775 | 0.421 | 0.403 | 0.391 | 0.345 | 0.702 | 0.666 | 0.707 | 0.469 | 0.844 | 0.721 | 0.559 | 0.432
7 | NCI-H1437 | 0.999 | 1.3 | 0.907 | 0.559 | 0.444 | 0.471 | 0.454 | 0.377 | 1.16 | 1.29 | 1.24 | 0.654 | 0.885 | 0.984 | 0.852 | 0.651 | 0.608 | 0.854 | 0.529 | 0.324
8 | NCI-H1651 | 0.757 | 0.829 | 0.757 | 0.546 | 0.79 | 0.886 | 0.689 | 0.683 | 0.394 | 0.505 | 0.526 | 0.353 | 0.588 | 0.73 | 0.749 | 0.423 | 0.517 | 0.607 | 0.601 | 0.528
9 | NCI-H1666 | 0.946 | 1.13 | 1.1 | 0.941 | 0.899 | 0.788 | 1.07 | 0.716 | 0.863 | 0.874 | 0.802 | 0.788 | 0.882 | 0.834 | 0.993 | 0.857 | 1.07 | 1.1 | 1.04 | 1.06
10 | NCI-H1734 | 0.167 | 0.17 | 0.181 | 0.179 | 0.624 | 0.775 | 0.653 | 0.405 | 0.465 | 0.627 | 0.597 | 0.441 | 0.53 | 0.574 | 0.605 | 0.404 | 0.808 | 0.837 | 0.944 | 0.576
11 | NCI-H1755 | 0.457 | 0.436 | 0.285 | 0.221 | 0.717 | 0.827 | 0.76 | 0.699 | 0.392 | 0.411 | 0.444 | 0.407 | 0.832 | 0.727 | 0.776 | 0.559 | 0.844 | 0.835 | 0.856 | 0.511
12 | NCI-H1793 | 0.193 | 0.179 | 0.195 | 0.166 | 0.44 | 0.42 | 0.472 | 0.339 | 0.358 | 0.458 | 0.454 | 0.159 | 0.242 | 0.245 | 0.261 | 0.152 | 0.882 | 0.565 | 0.89 | 0.249
13 | NCI-H1915 | 0.567 | 1.47 | 0.846 | 0.748 | 0.304 | 0.339 | 0.281 | 0.247 | 0.67 | 0.735 | 0.632 | 0.671 | 0.571 | 0.718 | 0.653 | 0.472 | 0.496 | 0.607 | 0.608 | 0.491
14 | NCI-H1944 | 0.741 | 0.699 | 0.729 | 0.43 | 0.419 | 0.385 | 0.432 | 0.328 | 0.527 | 0.433 | 0.585 | 0.579 | 0.403 | 0.376 | 0.383 | 0.31 | 0.502 | 0.627 | 0.522 | 0.249
15 | NCI-H1975 | 0.187 | 0.241 | 0.164 | 0.135 | 0.29 | 0.291 | 0.307 | 0.179 | 0.664 | 0.599 | 0.72 | 0.558 | 0.674 | 0.731 | 0.677 | 0.417 | 0.614 | 0.812 | 0.728 | 0.452
16 | NCI-H1993 | 0.677 | 0.756 | 0.929 | 0.638 | 0.547 | 0.542 | 0.498 | 0.501 | 0.608 | 0.654 | 0.708 | 0.586 | 0.544 | 0.607 | 0.565 | 0.573 | 0.659 | 0.711 | 0.742 | 0.702
